Literature values as cited in patent US6630467B2, “Pyridone-fused azabicyclic- or cytisine derivatives, their preparation and their use in addiction therapy” (Pfizer Inc., priority 1996, dated 2003).

Settings: in vivo

Question: For `O=c1cccc2n1CC1CNCC2C1` (centres unmarked) [cytisine, 1,2,3,4,5,6-hexahydro-1,5-methano-pyrido[1,2-a][1,5]diazocin-8-one], which “penetration of the brain barrier” value is on record?
Answer: The value was “inability to penetrate the brain barrier”.

Question: What about the potency of the same molecule?
Answer: The potency was “not high”.
